Assay results published in ChEMBL document CHEMBL3508140 (2016).

Experiments:
[1] = Plasma clearance of epirubicin following intravenous epirubicin at 60 mg.m-2 dose in cancer patients; format: ADME, organism-based; settings: human, in vivo
[2] = Mortality occurred following reference intravenous epirubicin at 1 mg.Kg-1 per week in rat; format: toxicity, organism-based, SD; settings: in vivo
[3] = Half-life of terminal elimination phase of epirubicin following intravenous epirubicin at 40-135 mg.m-2 dose in cancer patients; format: ADME, organism-based; settings: human, plasma
[4] = AUC of epirubicin following intravenous epirubicin at 3 mg.Kg-1 dose in rabbit; format: ADME, organism-based, Oryctolagus cuniculus; settings: both, New Zealand White, plasma
[5] = Mean estimated half-life of epirubicin following intravenous epirubicin at 1 mg.Kg-1 dose administered approximately 25 minute prior to epirubicin once weekly for four weeks in dog; format: ADME, organism-based, Canis lupus familiaris; settings: Beagle, plasma
[6] = AUC of epirubicin following intrahepatic epirubicin solution at 1 mg.Kg-1 dose in rabbit; format: ADME, organism-based, Oryctolagus cuniculus; settings: both, New Zealand White, blood
[7] = Initial phase half-life of epirubicin following intravenous epirubicin at 50 mg.m-2 dose in cancer patients; format: ADME, organism-based, Plasma; settings: human, in vivo
[8] = Half-life of terminal elimination phase of epirubicin following intravenous epirubicin at 60-90 mg.m-2 dose in cancer patients; format: ADME, organism-based; settings: human, plasma
[9] = Recovery of epirubicin following intraperitoneal epirubicin at 4 mg.Kg-1 dose in hamster; format: ADME, organism-based, Cricetulus griseus, Plasma; settings: chinese hamster, in vivo, ip
[10] = Plasma clearance of epirubicin following intravenous epirubicin at 3 mg.Kg-1 dose in rabbit; format: ADME, organism-based, Oryctolagus cuniculus; settings: both, New Zealand White
[11] = Terminal elimination of metabolite of epirubicin following intravenous epirubicin at 30-90 mg.m-2 dose in cancer patients; format: ADME, organism-based, Plasma; settings: human, in vivo
[12] = Plasma clearance of epirubicin following intravenous epirubicin at 1 mg.Kg-1 dose in rabbit; format: ADME, organism-based, Oryctolagus cuniculus; settings: both, New Zealand White
[13] = Volume of distribution of epirubicin following intravenous epirubicin at 3 mg.Kg-1 dose in rabbit; format: ADME, organism-based, Oryctolagus cuniculus; settings: both, New Zealand White, plasma
[14] = Plasma clearance of epirubicin following intravenous epirubicin solution at 1 mg.Kg-1 dose in rabbit; format: ADME, organism-based, Oryctolagus cuniculus, Blood; settings: both, New Zealand White
[15] = Plasma clearance of epirubicin following intravenous epirubicin at 40-135 mg.m-2 dose in cancer patients; format: ADME, organism-based; settings: human, in vivo
[16] = Volume of distribution at steady state following intravenous epirubicin at 150 mg.m-2 dose in patients with advanced cancer; format: ADME, organism-based; settings: human, plasma, read-out: Vss
[17] = Intermediate phase half-life of epirubicin following intravenous epirubicin at 75-90 mg.m-2 dose in cancer patients; format: ADME, organism-based, Plasma; settings: human, in vivo
[18] = Volume of distribution as steady state of epirubicin following intravenous epirubicin at 30-90 mg.m-2 dose in cancer patients; format: ADME, organism-based, Plasma; settings: human, in vivo
[19] = Urinary elimination of 4'-epiadriamycin following intravenous bolus 4'-epiadriamycin at 10 mg.Kg-1 dose in rat; format: ADME, organism-based; settings: SD, urine, read-out: Compound recovery
[20] = AUC of epirubicin following intravenous epirubicin at 1 mg.Kg-1 dose in rabbit; format: ADME, organism-based, Oryctolagus cuniculus; settings: both, New Zealand White, plasma
[21] = Volume of distribution of 4'-epiadriamycin intravenous 4'-epiadriamycin at 1.27 mg.Kg-1 dose in dog; format: ADME, organism-based, Canis lupus familiaris; settings: Beagle, plasma
[22] = Detection of epirubicin in plasma following single intravenous epirubicin at 10 mg.Kg-1 dose in female mouse bearing colon tumor; format: ADME, organism-based, BALB/c; settings: in vivo
[23] = Cumulative biliary excretion of epirubicin and its metabolites following epirubicin at 50 mg.m-2 dose in cancer patients; format: ADME, organism-based, Bile; settings: human, in vivo; at 50 mg/m2
[24] = Recovery of epirubicin following intraperitoneal epirubicin at 4 mg.Kg-1 dose in mouse; format: ADME, organism-based, CD-1, Plasma; settings: in vivo, ip
[25] = AUC values (0-48 h) of epirubicin in plasma following single intravenous epirubicin at 10 mg.Kg-1 dose in female mouse bearing colon tumor; format: ADME, organism-based, BALB/c; settings: in vivo
[26] = Recovery of epirubicin following intravenous epirubicin at 1.5 mg.Kg-1 dose in man; format: ADME, organism-based, Plasma; settings: human, in vivo
[27] = Mean residence time (MRT) of epirubicin following intrahepatic epirubicin solution at 1 mg.Kg-1 dose in rabbit; format: ADME, organism-based, Oryctolagus cuniculus; settings: both, New Zealand White, blood, read-out: Mean residence time (converted)

For `COc1cccc2c1C(=O)c1c(O)c3c(c(O)c1C2=O)C[C@@](O)(C(=O)CO)C[C@@H]3O[C@H]1C[C@H](N)[C@@H](O)[C@H](C)O1.Cl` [EPIRUBICIN HYDROCHLORIDE], the CLp [1] was 43.1 L.h-1.m-2, the Mortality [2] was “OUTCOME = Observed, N_AFFECTED = 5” and the half-life [3] was 20.6 h. It also gave an AUC [4] of 620 ng·h/mL, a half-life [5] of 51.1 h and an AUC [6] of 65.5 ng·h/mL. The t1/2 [7] was 3.44 min, the half-life [8] was 40 h and the Compound recovery [9] was 83 10^-9M. For the same molecule, the clearance [10] was 323 mL/min, the t1/2 [11] was 32.2 h and the clearance [12] was 196 mL/min. The Vd [13] was 587 L/kg, the clearance [14] was 813 mL/min and the CLp [15] was 50.9 L.h-1.m-2. The Vd [16] was 21 L/kg, the t1/2 [17] was 2.6 h and the Vss [18] was 1858 L.m-2. The dose excreted [19] was 2.43%, the AUC [20] was 420 ng·h/mL and the Vd [21] was 71.9 L/kg. For the same molecule, the Compound recovery [22] was “OUTCOME = Observed”, the Radiolabel recovery [23] was 34.9% and the Compound recovery [24] was 49 10^-9M. The AUC [25] was 179 nmol·min/mL, the Compound recovery [26] was 46 10^-9M and the MRT [27] was 1.38 h.
